Source: US10995071B2, “Method for producing a polymorphic form of 3-[5-amino-4-(3-cyanobenzoyl)-pyrazol-1-yl]-N-cyclopropyl-4-methylbenzamide” (MEREO BIOPHARMA 1 LIMITED, priority 2016, dated 2021)

Experiments:
Type in all cases: physicochemical
[1] = Variable temperature XRPD study
Description: The sample was placed in Anton-Paar TTK 450 chamber at 25° C. The temperature was controlled in-situ through the measurement files: p2853-vt, LRP-1301-39-01.dql, LRP-1301-42-01.dql, LRP-1301-42-02.dql. The sample was heated from 25° C. to 200° C. at 1° C./min. XRPD data were collected from 30° C. to 200° C. every 10° C. Approximately 40 mg of the sample was placed in a Ni-coated sample holder under ambient conditions. The sample was loaded at 25° C.
At 200° C., changes (shifts) in peak position in the high 2-theta region were observed. This may be attributed to the thermal expansion effect.

[2] = Hygroscopicity of the polymorphic form; settings: crystalline anhydrous form
[3] = Solubility profile of the polymorphic form
[4] = Dissolution rate comparison of Form A and Form B in size 1 capsules (FIG. 8); settings: 50 mg drug substance/capsule, milled to D50 1-10 μm, compared with Form A
Excerpt: The products is milled to D50 1-10 μm.

[5] = Thermodynamic stability of the polymorphic form

Row | temperature of conversion to Form B on heating ([1]; heated from 25° C. to 200° C. at 1° C./min) | hygroscopicity [2] | solubility profile [3] | dissolution rate [4] | form by XRPD after heating to 200° C. and cooling to room temperature ([1]; cooled to room temperature (20° C.)) | thermodynamic stability [5] | SMILES
1 | above 100 °C |  |  |  |  |  | Cc1ccc(C(=O)NC2CC2)cc1-n1ncc(C(=O)c2cccc(C#N)c2)c1N [Form A, 3-[5-amino-4-(3-cyanobenzoyl)-pyrazol-1-yl]-N-cyclopropyl-4-methylbenzamide]
2 |  | non-hygroscopic | favourable solubility profile | higher dissolution rate than Form A | remained unchanged | thermodynamically stable | Cc1ccc(C(=O)NC2CC2)cc1-n1ncc(C(=O)c2cccc(C#N)c2)c1N [Form B, 3-[5-amino-4-(3-cyanobenzoyl)-pyrazol-1-yl]-N-cyclopropyl-4-methylbenzamide]
